Data as given in ChEMBL document CHEMBL1201862, “PubChem BioAssay data set” (2004).
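Five concentrations, 48 hours, 96-well plates. At the GI50, growth is halved.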 The source made the active and inactive calls. No stated cut-off is given here; in the data, active = GI50 up to about 1.1 µM and inactive = higher.

What was measured:
Test in all cases: NCI anticancer screen, dose series, 48 h
A498 = system: A498
A549 = system: A549
BT-549 = system: BT-549
HT-29 = system: HT-29
IGROV-1 = system: IGROV-1
KM12 = system: KM12
Malme-3M = system: Malme-3M
NCI-H23 = system: NCI-H23
OVCAR-3 = system: OVCAR-3
RXF 393 = system: RXF 393
SF-268 = system: SF-268
SF-295 = system: SF-295
SNB-19 = system: SNB-19
SNB-75 = system: SNB-75
T47D = system: T47D
UO-31 = system: UO-31
HCC 2998 = system: HCC 2998
K562 = system: K562
SK-MEL-2 = system: SK-MEL-2
MCF7 = system: MCF7

SMILES | GI50 (A498) | GI50 (A549) | GI50 (BT-549) | GI50 (HT-29) | GI50 (IGROV-1) | GI50 (KM12) | GI50 (Malme-3M) | GI50 (NCI-H23) | GI50 (OVCAR-3) | GI50 (RXF 393) | GI50 (SF-268) | GI50 (SF-295) | GI50 (SNB-19) | GI50 (SNB-75) | GI50 (T47D) | GI50 (UO-31) | GI50 (HCC 2998) | GI50 (K562) | GI50 (SK-MEL-2) | GI50 (MCF7)
CC1(C)O[C@@H](CP(c2ccccc2)c2ccccc2)[C@H](CP(c2ccccc2)c2ccccc2)O1 | 12.6 µM (inactive) | 2.93 µM (inactive) | 2.96 µM (inactive) | 0.675 µM (active) | 2.33 µM (inactive) | 2.85 µM (inactive) | 5.83 µM (inactive) | 1.53 µM (inactive) | 0.384 µM (active) | 8.15 µM (inactive) | 5.96 µM (inactive) | 5.62 µM (inactive) | 4.05 µM (inactive) | 6.55 µM (inactive) | 3.76 µM (inactive) | > 10 µM (inactive) |  |  |  | 
NCCCN(CCCN)CCCNCc1c2ccccc2c(CNCCCN(CCCN)CCCN)c2ccccc12 | 28.2 µM (inactive) | 24.3 µM (inactive) |  | 11 µM (inactive) | 11.1 µM (inactive) | 4.37 µM (inactive) | 8.07 µM (inactive) | 22.5 µM (inactive) | 19 µM (inactive) | 21.4 µM (inactive) | 18.3 µM (inactive) | 12.3 µM (inactive) | 14.6 µM (inactive) | 16.5 µM (inactive) |  | 29.6 µM (inactive) | 4.51 µM (inactive) | 9.42 µM (inactive) | 23.7 µM (inactive) | 
O=C1Nc2ccccc2/C1=c1\[nH]c(=O)/c(=C\c2ccc(OCc3ccccc3)cn2)[nH]c1=O | 27.3 µM (inactive) | > 100 µM (inactive) |  | > 100 µM (inactive) | 47.3 µM (inactive) | > 100 µM (inactive) | 32.4 µM (inactive) | 30.7 µM (inactive) | > 100 µM (inactive) | 8.17 µM (inactive) | 21.2 µM (inactive) | 16.8 µM (inactive) | 31.4 µM (inactive) | 4.21 µM (inactive) | > 100 µM (inactive) | < 0.01 µM (active) | > 100 µM (inactive) | 20.4 µM (inactive) | 38.2 µM (inactive) | > 100 µM (inactive)
O=C1C(O)=C(CN(CCCl)CCCl)C(=O)c2ccccc21 | > 100 µM (inactive) | 34.3 µM (inactive) |  | 42.8 µM (inactive) | 20.5 µM (inactive) | 56.5 µM (inactive) | 53.5 µM (inactive) | 68.9 µM (inactive) | 45.1 µM (inactive) | 28 µM (inactive) | 43.1 µM (inactive) | 70.3 µM (inactive) | 50 µM (inactive) | 73.6 µM (inactive) |  | 37.4 µM (inactive) | 97.5 µM (inactive) | 45.6 µM (inactive) | > 100 µM (inactive) | 
COc1c2c(cc3nc4ccccc4nc13)CCC(C(C)(C)O)C2 (stereo not drawn) | > 100 µM (inactive) | > 100 µM (inactive) |  | 66.4 µM (inactive) | > 100 µM (inactive) | 82.6 µM (inactive) | 65.6 µM (inactive) | 56.8 µM (inactive) | 49.5 µM (inactive) | > 100 µM (inactive) | > 100 µM (inactive) | > 100 µM (inactive) | > 100 µM (inactive) | > 100 µM (inactive) |  | 83.2 µM (inactive) | > 100 µM (inactive) | 73.8 µM (inactive) | > 100 µM (inactive) | 
CC(C)C1=Cc2ccc3c(c2C(=O)C1=O)CCCC3 | 13.1 µM (inactive) | 5.96 µM (inactive) |  | 9.06 µM (inactive) | 5.27 µM (inactive) | 17.1 µM (inactive) | 2.58 µM (inactive) | 9.42 µM (inactive) | 2.33 µM (inactive) | 4.32 µM (inactive) | 7.11 µM (inactive) | 12.8 µM (inactive) | 17.9 µM (inactive) | 2.05 µM (inactive) | 0.227 µM (active) | 3.31 µM (inactive) | 17.1 µM (inactive) | 2.44 µM (inactive) | 7.35 µM (inactive) | 1.59 µM (inactive)
CCCCCCc1cc(C(=O)Nc2cccc(C(F)(F)F)c2)nc(N)n1 | > 100 µM (inactive) | > 100 µM (inactive) |  | > 100 µM (inactive) | > 100 µM (inactive) | > 100 µM (inactive) | > 100 µM (inactive) | > 100 µM (inactive) | > 100 µM (inactive) | > 100 µM (inactive) | > 100 µM (inactive) | > 100 µM (inactive) | > 100 µM (inactive) | > 100 µM (inactive) |  | > 100 µM (inactive) | > 100 µM (inactive) | > 100 µM (inactive) | > 100 µM (inactive) | 
Cc1nn(C)cc1P(=S)(c1ccccc1)c1ccccc1 | > 100 µM (inactive) | 55 µM (inactive) |  | 50.4 µM (inactive) | > 100 µM (inactive) | 36.4 µM (inactive) | 58.6 µM (inactive) | > 100 µM (inactive) | > 100 µM (inactive) | > 100 µM (inactive) | 81.8 µM (inactive) | 67.5 µM (inactive) | > 100 µM (inactive) | 24.4 µM (inactive) |  | > 100 µM (inactive) | > 100 µM (inactive) | 20.6 µM (inactive) | > 100 µM (inactive) | 
Cc1cccc2c1c(=O)c1c(O)cc(O)cc1n2C | 59 µM (inactive) | > 100 µM (inactive) | > 100 µM (inactive) | 72.3 µM (inactive) | > 100 µM (inactive) | > 100 µM (inactive) | > 100 µM (inactive) | > 100 µM (inactive) | > 100 µM (inactive) | 59.8 µM (inactive) | > 100 µM (inactive) | 89.1 µM (inactive) | > 100 µM (inactive) | 39.4 µM (inactive) |  |  | > 100 µM (inactive) | 80.5 µM (inactive) | > 100 µM (inactive) | > 100 µM (inactive)
COc1c(Cl)c2c(c(OC)c1OC)-c1ccc(OC)c(=O)c(Cl)c1C(NC(C)=O)CC2 (stereo not drawn) | 0.0593 µM (active) | 0.225 µM (active) |  | 0.156 µM (active) | 0.466 µM (active) | 0.104 µM (active) | 0.155 µM (active) | 0.269 µM (active) | 0.117 µM (active) | 0.0382 µM (active) | 0.212 µM (active) | 0.14 µM (active) | 1.43 µM (inactive) | 0.1 µM (active) |  | 3.63 µM (inactive) | 0.182 µM (active) | 0.139 µM (active) | 0.284 µM (active) | 
COc1ccc(/C=C2/CCCC/C2=N/O)cc1 | 24.2 µM (inactive) | > 100 µM (inactive) |  | > 100 µM (inactive) | 41 µM (inactive) | > 100 µM (inactive) | > 100 µM (inactive) | 93.1 µM (inactive) | > 100 µM (inactive) | 40.8 µM (inactive) | 57.9 µM (inactive) | > 100 µM (inactive) | > 100 µM (inactive) | 31.6 µM (inactive) |  | > 100 µM (inactive) | > 100 µM (inactive) | > 10 µM (inactive) | > 100 µM (inactive) | 
Cc1ccc(O)c(-c2cc(-c3ccccc3)nc(/N=C\c3ccccc3)n2)c1 |  | 23.1 µM (inactive) | 0.126 µM (active) | > 100 µM (inactive) | 16.6 µM (inactive) | 17.5 µM (inactive) | > 100 µM (inactive) | 24.4 µM (inactive) | 23.7 µM (inactive) |  | 21.9 µM (inactive) | 36.1 µM (inactive) | 29.8 µM (inactive) | 15.3 µM (inactive) | 7.69 µM (inactive) | 2.94 µM (inactive) |  | 45.6 µM (inactive) | 25.8 µM (inactive) | 2.6 µM (inactive)
O=C1C[C@H]2[C@H](c3ccc(Br)cc3)[C@H]3C(=O)c4ccccc4NC(=O)[C@@H]3[C@@]2(O)c2ccccc2N1 | 8.34 µM (inactive) | 11.6 µM (inactive) |  | 10.7 µM (inactive) | 8.22 µM (inactive) | 11.7 µM (inactive) | 19.7 µM (inactive) | 10.4 µM (inactive) | 10.6 µM (inactive) | 3.48 µM (inactive) | 19.1 µM (inactive) | 24 µM (inactive) | 38.2 µM (inactive) | 4.53 µM (inactive) |  |  | 11.7 µM (inactive) | 12 µM (inactive) |  | 11.1 µM (inactive)
CC(C)OC(=O)NCCn1cc(-c2ccccc2)nn1 |  | > 100 µM (inactive) | > 100 µM (inactive) | > 100 µM (inactive) |  | > 100 µM (inactive) | > 100 µM (inactive) | > 100 µM (inactive) |  |  | > 100 µM (inactive) | > 100 µM (inactive) | > 100 µM (inactive) | > 100 µM (inactive) |  |  | > 100 µM (inactive) | > 100 µM (inactive) | > 100 µM (inactive) | > 100 µM (inactive)
Cn1c(=S)sc2nc3ccccc3n2c1=S | 19.3 µM (inactive) | 24.7 µM (inactive) |  | 5.81 µM (inactive) | 12.8 µM (inactive) | 10.2 µM (inactive) | 13.9 µM (inactive) | 12.4 µM (inactive) | 12.1 µM (inactive) | 10.9 µM (inactive) | 10.9 µM (inactive) | 18.8 µM (inactive) | 13.7 µM (inactive) | 16.5 µM (inactive) | 9.84 µM (inactive) | 5.55 µM (inactive) | 19.6 µM (inactive) | 2 µM (inactive) | 51.1 µM (inactive) | 2.26 µM (inactive)
C=CCOCn1cnc2c(=O)[nH]c(N)nc21 | > 100 µM (inactive) | > 100 µM (inactive) |  |  | > 100 µM (inactive) | > 100 µM (inactive) | > 100 µM (inactive) | > 100 µM (inactive) |  |  | > 100 µM (inactive) | > 100 µM (inactive) | > 100 µM (inactive) | > 100 µM (inactive) | > 100 µM (inactive) | > 100 µM (inactive) | > 100 µM (inactive) | > 100 µM (inactive) | > 100 µM (inactive) | > 100 µM (inactive)
